Data set [1] deals with AML PDX model HAMLX5343 (KRASG12D, WT1, PTPN11). The data set is classed as in vivo. The procedure:
Initial group size: 4 animals. […] All final data were recorded on day 56.
(§1) The activity of MBG453 with and without decitabine was evaluated in two AML patient-derived xenograft (PDX) models, HAMLX21432 and HAMLX5343. Decitabine (TCI America) was formulated in dextrose 5% in water (D5W) freshly prior to each dose and administered daily for 5 days. It was administered at 10 mL/kg intraperitoneal (i.p.), for a final dose […]. MBG453 was formulated to a final concentration of 1 mg/mL in PBS. It was administered weekly at a volume of 10 mL/kg, i.p., for a final dose of 10 mg/kg, with treatment initiating on dosing day 6, 24 hours after the final dose of decitabine.

Data set [2] concerns AML PDX model HAMLX21432 (IDH1R132H). The format is in vivo. As to the method:
MBG453 was administered i.p. at 10 mg/kg, once weekly (starting at day 6 of dosing) either as a single agent or in combination with decitabine i.p. at 1 mg/kg, once daily for a total of 5 doses (from initiation of dosing). Initial group size: 4 animals. […] All final data were recorded on day 56. Leukemic burden was measured as a percentage of human CD45+ cells in peripheral blood by FACS analysis.
as §1
Treatments were initiated on the day of randomization and continued for 21 days.

The conditions of data set [3]: cited from earlier work.
In data set [4] the target is T1, TIM-3/Galectin-9 interaction (Homo sapiens, UniProt Q8TDQ0).
T1 construct: purchased R&D Systems
As to the kind of experiment: Plate-based (MesoScale) competition assay of the TIM-3/Galectin-9 interaction. The format is binding. The note with it: serial dilutions of antibody; labeled Galectin-9 100 nM. As to the method:
FIG. 1 is a graph depicting the impact of MBG453 on the interaction between TIM3 and galectin-9. Competition was assessed as a measure of the ability of the antibody to block Gal9-SULFOTag signal to TIM-3 receptor, which is shown on the Y-axis. Concentration of the antibody is shown on the X-axis.
TIM-3 fusion protein (R&D Systems) was coated on a standard MesoScale 96 well plate (Meso Scale Discovery) at 2 μg/ml in PBS (Phosphate Buffered Saline) and incubated for six hours at room temperature. The plate was washed three times with PBST (PBS buffer containing 0.05% Tween-20) and blocked with PBS containing 5% Probumin (Millipore) overnight at 4° C. After incubation, the plate was washed three times with PBST and unlabeled antibody (F38-2E2 (BioLegend); MBG453; MBG453 F(ab′)2; MBG453 F(ab); or control recombinant human Galectin-9 protein) diluted in Assay Diluent (2% Probumin, 0.1% Tween-20, 0.1% Triton X-100 (Sigma) with 10% StabilGuard (SurModics)), was added in serial dilutions to the plate and incubated for one hour on an orbital shaker at room temperature. […] The plate was again washed three times with PBST, and Read Buffer T (1×) was added to the plate. The plate was read on MA600 Imager, and competition was assessed as a measure of the ability of the antibody to block Gal9-SULFOTag signal to TIM-3 receptor.

In data set [5] the test system is THP-1 cells engineered to overexpress TIM-3. As to the kind of experiment: T cell-mediated killing of TIM-3-overexpressing versus parental THP-1 cells (co-culture, flow cytometry). The format is cell-based, human. The note with it: 25 μg/ml; 3 days co-culture; anti-CD3/anti-CD28 beads. The procedure: The ratio between TIM-3-expressing THP-1 cells and parental THP-1 cells (“fold” in y-axis of graph) was calculated and normalized to conditions without anti-CD3/anti-CD28 bead stimulation. The x-axis of the graph denotes the stimulation amount as number of beads per cell. Data represents one of two independent experiments.
THP-1 cells express TIM-3 mRNA but low to no TIM-3 protein on the cell surface. […] TIM-3 Flag-tagged THP-1 cells were labeled with 2 μM CFSE (Thermo Fisher Scientific), and THP-1 parental cells were labeled with 2 μM CTV (Thermo Fisher Scientific), according to manufacturer instructions. Co-culture assays were performed in 96-well round-bottom plates. […] Cells were then detected and counted by flow cytometry. The ratio between TIM-3-expressing THP-1 cells and parental THP-1 cells (“fold” in y-axis of graph) was calculated and normalized to conditions without anti-CD3/anti-CD28 bead stimulation. […]
In general terms: In flow cytometry, cells or beads pass a laser one at a time.

The subject of data set [6] is rodent and cynomolgus monkey TGF-β. As to the kind of experiment: Species cross-reactivity of NIS793. The format is binding.
The subject of the next data set is IL-1 signaling. Particulars: mouse model of disease; cited from earlier work.
Setting [7] is: single agent, 1 mg/kg i.p. daily x5.

On to `Nc1ncn([C@H]2C[C@H](O)[C@@H](CO)O2)c(=O)n1` [decitabine, 4-amino-1-(2-deoxy-beta-D-erythro-pentofuranosyl)-1,3,5-triazin-2(1H)-one], for which the “leukemic burden, hCD45+ cells” value in data set [1] (group average, day 53 post-implant or day 21 post-treatment start) is recorded as 1%. In addition, the anti-tumor activity result in data set [1] (setting [7]) was “significant anti-tumor activity”. In data set [2] (day 56 post-implantation), the “leukemic burden, hCD45+ cells in circulation” value was 66%. Besides, the “leukemic burden, hCD45+ cells in peripheral blood” value in data set [2] (group average, day 49 post-implant or day 14 post-treatment start, decitabine 1 mg/kg i.p. daily x5, MBG453 10 mg/kg i.p. weekly) was found to be 51%. In data set [2] (setting [7]), the anti-tumor activity result is given as “moderate anti-tumor activity”. Besides, in data set [3] (21 patients with myelofibrosis), the response is on record as 7 of 19. For the same compound, in data set [3] (myelofibrosis cohort), the “Grade 3/4 neutropenia” value is reported as 95 % of patients and the “Grade 3/4 thrombocytopenia” value was 52 % of patients.

Turning to MBG453 F(ab): F(ab) fragment of MBG453, the “block of the interaction between TIM-3 and Galectin-9 (Gal9-SULFOTag signal to TIM-3)” value in data set [4] is “partially blocked”. In addition, the “T cell-mediated killing of TIM-3-overexpressing THP-1 cells relative to parental THP-1 cells” value in data set [5] is “not”.

For “MBG453 F(ab′)2: F(ab′)2 fragment of MBG453”, the “block of the interaction between TIM-3 and Galectin-9 (Gal9-SULFOTag signal to TIM-3)” value in data set [4] is “partially blocked”.

Consider “NIS793: fully human IgG2 monoclonal antibody that specifically binds and neutralizes TGF-beta 1 and 2 ligands”, for which the “cross-reactivity with rodent and cynomolgus monkey TGF-β” value in data set [6] is given as “cross-reacts”.

Regarding “anakinra: recombinant IL-1 receptor antagonist (IL-1Ra)”, in the data set with IL-1 signaling, the “BM MSC frequency” value is “increased” and the platelet counts entry is reported as “reduced”.

The values above are taken from US20230057071A1 (NOVARTIS AG, priority 2019, published 2023).
